Consider four compounds from patent US6344217B1, “Putamen OVI” (priority 1994, dated 2002).

The test system of data set [1] is Male Wistar rats. The data set is described as follows: Haematology (WBC, RBC) after 7-day intragastral treatment of rats. In kind it is in vivo, rat. The protocol:
(§1) Male Wistar rats having an average body weight of 322.5 g were kept under conventional conditions at a room temperature of 21±1° C., a relative atmospheric humidity of about 60% and a 12 hour day/night cycle. Prior to the start of the experiment, they where subjected to an acclimatization to those keeping conditions for 12 days.
(§2) Feeding was performed with the pelletized standard diet Altromin C 1000, Misch. Nr. 100 (Altrogge). The animals were given tap water ad libidum as drinking water.
(§3) 1. Coated tablet core granules, micronized with putamen ovi; 1 coated tablet core aar® os with 640 mg contains 440 mg of putamen ovi, micronized, corresponding to 160 mg of calcium; Dosage form: Putamen ovi, coated tablet core granules, 146 mg (≡100 mg of putamen ovi, micronized≈36.5 mg of Ca) is suspended in 2 ml of dist. water (POS), 0.5 ml (POS)≡9.125 mg of Ca (PO)/[…]
(§4) The suspension were freshly prepared immediately before the administration and homogeneously administered. The control animals were given physiological saline in an equivalent volume.
erythrocytes (RBC), leucocytes (WBC), platelets (PLT), hemoglobin (HGB), hematocrit (HCT)
By means of the fully automated hematology analyzer Sysmex K-1000, the following were determined: WBC, RBC, PLT as well as HGB and HCT, further MCV, MCH and MCHC. The main unit of this device essentially consists of a hydraulic (HS) and an electronic (ES) system. The HS is used for sucking, pipetting, diluting, mixing and lysing. The ES analyzes and converts the signals from the HS and submits the results to the printer. With the aid of microprocessors, the ES also monitors the test runs, the testing station, and performs a quality control.
The hematocrit value corresponds to the percent volume fraction of erythrocytes in blood. In addition to the number of erythrocytes and the hematocrit value, the level of hemoglobin, the chromoprotein contained in the erythrocytes, is an important criterion for the diagnostics of anemias. Classification is performed by the erythrocyte indices. Erythrocyte size and hemoglobin content are characterized by the erythrocyte volume (MCV=mean corpuscular volume), the hemoglobin content of the erythrocytes (MCH=mean corpuscular hemoglobin), and the mean corpuscular hemoglobin concentration (MCHC). The erythrocyte distribution width (RDW=red cell distribution width) is a measure of anisocytosis.
(§5) Measurements were performed with the following test substances (corresponding values for the control=100%): […]

Data set [2] relates to Male Wistar rats. The data set can be described thus: Clinical-chemical serum parameters after 7-day treatment of rats. In kind it is in vivo, rat. The protocol:
as §1, §2, §3, §4
Parameters such as enzymes, glucose, lipids, electrolytes, creatinin, urea and protein are detected selectively, method-oriented, photometrically or ion-selectively using the analyzer Cobas Mira. The supplemental report furnishes analysis-specific data of quality control and statistics.
The following clinical-chemical metabolic measurement values were analyzed in a combined method-specific manner: Bilirubin, creatinin, urea, glutamate oxalacetate transaminase (GOT), glutamate pyruvate transaminase (GPT), gamma-glutamyl transferase (GGT), glucose, cholesterol, triglycerides, calcium, sodium, potassium, chloride and total protein.
as §5

The test system of data set [3] is Male Wistar rats. The data set is described as follows: Leucocyte/lymphocyte differentiation by flow cytometry after 7-day treatment of rats. In kind it is in vivo, rat. How it is done: as §1, §2, §3, §4
The leucocyte differentiation was performed using the flow cytometer FACScan following appropriate lysing of the whole blood sample (scattered light measurement).
The lymphocyte differentiation was performed after specific monoclonal incubation by means of fluorescence-activated cell sorting (fluorescence measurement).
On the 7th day of treatment, there were analyzed quantitatively:
For determining the phenotypes of the lymphocytes, they were incubated with the following antibodies of Pharmingen, San Diego (USA), to which a fluorochrome was coupled:
5 μl each of the antibodies is incubated with 50 μl of Na-EDTA-blood at room temperature in the dark for 20 min. The suspension is agitated with 2 ml of Lyses Reagenz of Becton-Dickinson and incubated for 10 min as described. This followed by centrifuging at 400×g for 6 min, and the supernatant is poured off. The pellet is washed with 3 ml of Cell Wash and centrifuged at 400×g for 6 min. The pellet is taken up in 100 μl of Cell Wash. The suspension is analyzed by means of the flow cytometer.
as §5

Data set [4] concerns healthy females in post-menopause. The following applies: two-year study, 361 healthy females in post-menopause; cited from earlier work.
For data set [5], the system named is Male Wistar rats. The data set is described as follows: Histological examination of organs after 7-day treatment of rats. The following applies: 7 days. The protocol:
as §1, §2, §3, §4

The mark [6] stands for this setting: change vs control (=100%), rats, 7 days intragastral, serum.
[7] abbreviates: change vs control (=100%), rats, intragastral once daily for 7 days, peripheral blood.
Where [8] appears, read: change vs control (=100%), rats, 7th day of treatment, peripheral blood.

Structures are written as SMILES. Several values for one entry are separate records, joined by “and”; a condition that tells them apart may be missing. Equal values may be shown once. Entries after “also recorded” stand apart in the source; their conditions may differ.

`O=C([O-])[O-].[Ca+2]` [CC, Calcium carbonate]: in the data set with Male Wistar rats [1] (rat, in vivo), the “RBC (number of erythrocytes)” value was “not increased”. Besides, the Ca entry with Male Wistar rats [2] (setting [6]) was “unch”. Also, in the data set on Male Wistar rats [2] (rat, in vivo), the “AP (alkaline phosphatase)” value was “+5.5%”, the GLDH entry is “+6.7%”, the GOT is −7.1% and the GPT result is “unch”. For the same compound, in the data set on Male Wistar rats [2] (rat, in vivo), the “SP (acid phosphatase)” value is listed as “unch”, the bilirubin is −17.3%, the cholesterol entry was “unch” and the creatinin is −19.7%. Also, in the data set with Male Wistar rats [2] (rat, in vivo), the glucose result is “+6.7%”, the triglycerides is reported as −7.8% and the urea is −13.9%. In the data set on Male Wistar rats [3] (rat, in vivo), the B lymphocytes entry was “+7.6%”, the T lymphocytes result is listed as “unch”, the chemoprotective effect entry is listed as “neither showed positive effects in clinically healthy rats nor chemoprotective effects” and the helper lymphocytes was −4.3%. In the data set with Male Wistar rats [3] (rat, in vivo), the lymphocytes result is given as “unch”, the “polymorphs (polymorphonuclear granulocytes)” value is “unch” and the supp. lymphocytes entry is on record as “+12.4%”. Also, in data set [4], the “inhibitory influence on bone mass losses” value was “only a slightly pronounced inhibitory influence”.
On to `O=P1(N(CCCl)CCCl)NCCCO1` (stereo not drawn) [CyS, Cyclophosphamide], for which the “WBC (number of leucocytes)” value in the data set on Male Wistar rats [1] (setting [7]) was −51.3%. In the data set with Male Wistar rats [2] (setting [6]), the “AP (alkaline phosphatase)” value is −14.7%, the Ca is on record as −23.2%, the GLDH was −21.3% and the GOT is −24.6%. In addition, in the data set on Male Wistar rats [2] (setting [6]), the GPT was −30.8%, the “SP (acid phosphatase)” value was −9.1%, the bilirubin entry is “+58.6%” and the cholesterol is −25%. In addition, in the data set on Male Wistar rats [2] (setting [6]), the creatinin is given as −28.3%, the glucose entry was “+5.2%”, the triglycerides entry is listed as “+10.1%” and the urea result is listed as “unch”. Also, in the data set on Male Wistar rats [3] (setting [8]), the B lymphocytes is reported as −79.9%; the T lymphocytes was −51% and −51.9%; the helper lymphocytes is listed as −45.9%; the lymphocytes is on record as −55.0%. In the data set on Male Wistar rats [3] (setting [8]), the “polymorphs (polymorphonuclear granulocytes)” value was −28.1% and the supp. lymphocytes is −30.9%. Further, the “erythrocytes in thorn-apple form (acanthocytes) in bone marrow sinuses” value in the data set on Male Wistar rats [5] is “encountered”.
As to `[F-].[Na+]` [NF, Sodium fluoride], in the data set on Male Wistar rats [1] (setting [7]), the “WBC (number of leucocytes)” value is on record as “+13.8%”. In the data set with Male Wistar rats [2] (setting [6]), the “AP (alkaline phosphatase)” value is “unch”, the Ca result is listed as “unch”, the GLDH is reported as −17.3% and the GOT is −9.8%. Further, in the data set with Male Wistar rats [2] (setting [6]), the GPT was −9.7%, the “SP (acid phosphatase)” value is reported as −7.5%, the bilirubin entry was “+13.8%” and the cholesterol is on record as −8.7%. In addition, in the data set on Male Wistar rats [2] (setting [6]), the creatinin was −20.7%, the glucose result was “+15.7%”, the triglycerides is −4.2% and the urea is recorded as −13.2%. For the same compound, in the data set with Male Wistar rats [3] (setting [8]), the T lymphocytes entry was “did not induce an effect; also recorded: unch”, the helper lymphocytes result is reported as “did not induce an effect; also recorded: unch”, the lymphocytes result is recorded as “unch” and the supp. lymphocytes result is listed as “did not induce an effect; also recorded: unch”.
`NS(=O)(=O)c1cc(C(=O)O)c(NCc2ccco2)cc1Cl` [FUR, Furosemide]: in the data set with Male Wistar rats [1] (setting [7]), the “RBC (number of erythrocytes)” value is listed as “unchanged” and the “WBC (number of leucocytes)” value was “+61.0%”. In addition, in the data set on Male Wistar rats [2] (setting [6]), the “AP (alkaline phosphatase)” value is recorded as −13.4%, the Ca is given as −28.9%, the GLDH is given as −31.3% and the GOT entry was “unch”. Also, in the data set with Male Wistar rats [2] (setting [6]), the GPT is given as −24.4%, the bilirubin entry is recorded as “+20.7%”, the cholesterol is reported as −24.9% and the creatinin was −49.7%. Further, in the data set with Male Wistar rats [2] (setting [6]), the glucose entry was “unch”, the triglycerides is listed as −29.6% and the urea is −7.3%. In the data set with Male Wistar rats [3] (setting [8]), the T lymphocytes result was “+46.2%”, the helper lymphocytes result was “+41.5%”, the lymphocytes result is “+60.5%” and the supp. lymphocytes entry was “unch”.
